The values that follow come from US10239925B2, “Peptides and combination of peptides for use in immunotherapy against ovarian cancer and other cancers” (IMMATICS BIOTECHNOLOGIES GMBH, priority 2015, dated 2019).

The target in one experiment is HLA-A*02:01 (Homo sapiens, UniProt P04439, D140Y/D185E/D98H/E176V/E277Q/G131W/G231S/I119V/I121R/I166T/I218V/L300P/L318F/N151K/N90K/P208A/P217A/Q86G/Q94H/R138H/R169H/T345S). The experiment in a line: MHC binding assay (UV-ligand exchange, anti-β2m ELISA, peptide exchange yield). The note with it: binding to HLA-A*02:01. An outline of the steps: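 Peptide-MHC complexes formed by UV-ligand exchange, cleaving a UV-sensitive placeholder peptide in favour of the test peptide. Exchange yield measured by ELISA: monomers diluted 100-fold onto streptavidin-coated plates, 1 h 37 °C, detected with 2 ug/ml HRP anti-β2m and TMB, absorbance at 450 nm.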
(In an ELISA, binding on a coated surface is turned into a signal by an enzyme label.)

The test system of a further experiment is CD8+ T cells. Briefly: In vitro immunogenicity: priming of CD8+ T cells with aAPCs loaded with peptide/MHC and anti-CD28, multimer readout. Type of experiment: cell-based, human. Particulars: for Wells positive [%]: HLA-A*02 restricted peptides, percentage of positive wells (among evaluable); for donors: percentage of positive donors; for wells: percentage of positive wells. The protocol:
In an aspect, the peptides are pre-screened for immunogenicity before being included in the warehouse. By way of example, and not limitation, the immunogenicity of the peptides included in the warehouse is determined by a method comprising in vitro T-cell priming through repeated stimulations of CD8+ T cells from healthy donors with artificial antigen presenting cells loaded with peptide/MHC complexes and anti-CD28 antibody.
FIGS. 3A to 3F show exemplary immunogenicity data: flow cytometry results after peptide-specific multimer staining. CD8+ T cells were primed using artificial APCs coated with anti-CD28 mAb and HLA-A*02 in complex with SeqID No 662 (FIG. 3A, left panel), SeqID No 663 (FIG. 3B, left panel), SeqID No 11 peptide (FIG. 3C, left panel), SeqID No 198 peptide (FIG. 3D, left panel), SeqID No 587 peptide (FIG. 3E, left panel) and SeqID No 427 peptide (FIG. 3F, left panel), respectively. After three cycles of stimulation, the detection of peptide-reactive cells was performed by 2D multimer staining with A*02/SeqID No 662 (FIG. 3A), A*02/SeqID No 663 (FIG. 3B), A*02/SeqID No 11 (FIG. 3C), A*02/SeqID No 198 (FIG. 3D), A*02/SeqID No 587 (FIG. 3E) or A*02/SeqID No 427 (FIG. 3F). Right panels (FIGS. 3A, 3B, 3C, 3D, 3E, and 3F) show control staining of cells stimulated with irrelevant A*02/peptide complexes. Viable singlet cells were gated for CD8+ lymphocytes. Boolean gates helped excluding false-positive events detected with multimers specific for different peptides. Frequencies of specific multimer+ cells among CD8+ lymphocytes are indicated.
In Vitro Immunogenicity for MHC Class I Presented Peptides
In order to obtain information regarding the immunogenicity of the TUMAPs of the present invention, the inventors performed investigations using an in vitro T-cell priming assay based on repeated stimulations of CD8+ T cells with artificial antigen presenting cells (aAPCs) loaded with peptide/MHC complexes and anti-CD28 antibody.
In Vitro Priming of CD8+ T Cells
In order to perform in vitro stimulations by artificial antigen presenting cells loaded with peptide-MHC complex (pMHC) and anti-CD28 antibody, the inventors first isolated CD8+ T cells from fresh HLA-A*02 leukapheresis products via positive selection using CD8 microbeads (Miltenyi Biotec, Bergisch-Gladbach, Germany) of healthy donors obtained from the University clinics Mannheim, Germany, after informed consent.
PBMCs and isolated CD8+ lymphocytes were incubated in T-cell medium (TCM) until use consisting of RPMI-Glutamax (Invitrogen, Karlsruhe, Germany) supplemented with 10% heat inactivated human AB serum (PAN-Biotech, Aidenbach, Germany), 100 U/ml Penicillin/100 μg/ml Streptomycin (Cambrex, Cologne, Germany), 1 mM sodium pyruvate (CC Pro, Oberdorla, Germany), 20 μg/ml Gentamycin (Cambrex). 2.5 ng/ml IL-7 (PromoCell, Heidelberg, Germany) and 10 U/ml IL-2 (Novartis Pharma, Nümberg, Germany) were also added to the TCM at this step.
Generation of pMHC/anti-CD28 coated beads, T-cell stimulations and readout was performed in a highly defined in vitro system using four different pMHC molecules per stimulation condition and 8 different pMHC molecules per readout condition.
The purified co-stimulatory mouse IgG2a anti human CD28 Ab 9.3 (Jung et al., 1987) was chemically biotinylated using Sulfo-N-hydroxysuccinimidobiotin as recommended by the manufacturer (Perbio, Bonn, Germany). Beads used were 5.6 μm diameter streptavidin coated polystyrene particles (Bangs Laboratories, Illinois, USA).
pMHC used for positive and negative control stimulations were A*0201/MLA-001 (peptide […] (SEQ ID NO. 664) from modified Melan-A/MART-1) and A*0201/DDX5-001 ([…] from DDX5, SEQ ID NO. 665), respectively.
800.000 beads/200 μl were coated in 96-well plates in the presence of 4×12.5 ng different biotin-pMHC, washed and 600 ng biotin anti-CD28 were added subsequently in a volume of 200 μl. […]

With “152 (ILFEDIFDV; listed as Homo sapiens) [compound 152]”, in the experiment with HLA-A*02:01, the “Peptide exchange (MHC class I binding score, peptide exchange yield)” value (“Peptide exchange” below) was ““+++” (>50 = +++)”. Further, the “Wells positive [%]” value with CD8+ T cells is given as ““++” (20% - 49% = ++)”.
As to “150 (RLWEEGEELEL; listed as Homo sapiens) [compound 150]”, the “Peptide exchange” value in the experiment with HLA-A*02:01 is ““+++” (>50 = +++)”. Also, the “Wells positive [%]” value in the experiment on CD8+ T cells is ““+” (<20% = +)”.
For “242 (AIAYILQGV; listed as Homo sapiens) [compound 242]”, the “Peptide exchange” value with HLA-A*02:01 is ““++” (>20% = ++)”. In the experiment with CD8+ T cells, the “Wells positive [%]” value is ““+++” (50% - 69% = +++)”.
On to “8 (FTLGNVVGMYL; listed as Homo sapiens) [compound 8]”, for which the “Peptide exchange” value with HLA-A*02:01 is ““++++” (>75% = ++++)”. Also, the “Wells positive [%]” value in the experiment with CD8+ T cells was ““+” (<20% = +)”.
In the case of “108 (ALFPGVALLLA; listed as Homo sapiens) [compound 108]”, the “Peptide exchange” value in the experiment with HLA-A*02:01 is ““++++” (>75% = ++++)”. For the same substance, the “Wells positive [%]” value in the experiment with CD8+ T cells is ““++” (20% - 49% = ++)”.
The matching figures for “463 (SLVESHLSDQLTL; listed as Homo sapiens) [compound 463]”: ““+++” (>50 = +++)” and ““++” (20% - 49% = ++)”.
Consider “2 (SLLEADPFL; listed as Homo sapiens) [compound 2]”, for which the “Peptide exchange” value in the experiment with HLA-A*02:01 is listed as ““+++” (>50 = +++)”. In addition, the “Wells positive [%]” value with CD8+ T cells is recorded as ““+” (<20% = +)”.
As for “663 (KIQEMQHFL; listed as Homo sapiens) [compound 663]”, in the experiment on CD8+ T cells, the donors result was “+++ (50% - 69% = +++)” and the wells entry is recorded as “+ (<20% = +)”.
As for “460 (AMLEKNYKL; listed as Homo sapiens) [compound 460]”, in the experiment with HLA-A*02:01, the “Peptide exchange” value was ““++++” (>75% = ++++)”. The “Wells positive [%]” value in the experiment on CD8+ T cells was ““+” (<20% = +)”.
Take “648 (LLWGNAIFL; listed as Homo sapiens) [compound 648]”: in the experiment on CD8+ T cells, the donors entry is reported as “+++ (50% - 69% = +++)” and the wells entry is “++ (20% - 49% = ++)”.
Turning to “215 (QLINHLHAV; listed as Homo sapiens) [compound 215]”, the “Peptide exchange” value with HLA-A*02:01 is reported as ““+++” (>50 = +++)”. Also, the “Wells positive [%]” value in the experiment with CD8+ T cells is reported as ““++” (20% - 49% = ++)”.
For the substance “60 (SLTIDGIYYV; listed as Homo sapiens) [compound 60]”, the “Peptide exchange” value in the experiment with HLA-A*02:01 is ““++++” (>75% = ++++)”. Further, in the experiment with CD8+ T cells, the “Wells positive [%]” value is listed as ““++++” (≥70% = ++++)”.
The matching figures for “446 (QLIPALAKV; listed as Homo sapiens) [compound 446]”: ““+++” (>50 = +++)” and ““++” (20% - 49% = ++)”.
“7 (SLVGLLLYL; listed as Homo sapiens) [compound 7]”: the “Peptide exchange” value with HLA-A*02:01 was ““++++” (>75% = ++++)”. Also, the “Wells positive [%]” value with CD8+ T cells is given as ““++” (20% - 49% = ++)”.
Regarding “5 (HLTEVYPEL; listed as Homo sapiens) [compound 5]”, in the experiment with HLA-A*02:01, the “Peptide exchange” value is listed as ““+++” (>50 = +++)”. The “Wells positive [%]” value in the experiment with CD8+ T cells was ““+++” (50% - 69% = +++)”.
“659 (ILFPDIIARA; listed as Homo sapiens) [compound 659]”: in the experiment on CD8+ T cells, the donors entry is “+++ (50% - 69% = +++)” and the wells result was “+ (<20% = +)”.
In the case of “17 (GLLPGDRLVSV; listed as Homo sapiens) [compound 17]”, the “Peptide exchange” value with HLA-A*02:01 is reported as ““+++” (>50 = +++)”. The “Wells positive [%]” value in the experiment on CD8+ T cells is ““++” (20% - 49% = ++)”.
On to “113 (GLLPTPLFGV; listed as Homo sapiens) [compound 113]”, for which, in the experiment with HLA-A*02:01, the “Peptide exchange” value is ““+++” (>50 = +++)”. Further, the “Wells positive [%]” value in the experiment on CD8+ T cells was ““+” (<20% = +)”.
The matching figures for “19 (FMVDNEAIYDI; listed as Homo sapiens) [compound 19]”: ““++++” (>75% = ++++)” and ““++” (20% - 49% = ++)”.
With “191 (LLQEGQALEYV; listed as Homo sapiens) [compound 191]”, the “Peptide exchange” value with HLA-A*02:01 is reported as ““++” (>20% = ++)”. Besides, the “Wells positive [%]” value with CD8+ T cells was ““+++” (50% - 69% = +++)”.
Consider “48 (ALAELYEDEV; listed as Homo sapiens) [compound 48]”, for which the “Peptide exchange” value with HLA-A*02:01 is reported as ““+++” (>50 = +++)”. Also, the “Wells positive [%]” value in the experiment on CD8+ T cells is listed as ““+” (<20% = +)”.
The matching figures for “11 (KIFEMLEGV; listed as Homo sapiens) [compound 11]”: ““+++” (>50 = +++)” and ““+” (<20% = +)”.
For “40 (TLLVKVFSV; listed as Homo sapiens) [compound 40]” the same measures were ““+++” (>50 = +++)” and ““++” (20% - 49% = ++)”.
With “49 (YLPAVFEEV; listed as Homo sapiens) [compound 49]”, the “Peptide exchange” value with HLA-A*02:01 is ““+++” (>50 = +++)”. The “Wells positive [%]” value in the experiment on CD8+ T cells is on record as ““++” (20% - 49% = ++)”.
As to “443 (GLWEIENNPTV; listed as Homo sapiens) [compound 443]”, the “Peptide exchange” value in the experiment with HLA-A*02:01 is ““+++” (>50 = +++)”. For the same substance, the “Wells positive [%]” value in the experiment with CD8+ T cells is reported as ““+” (<20% = +)”.
For “511 (FLDPYCSASV; listed as Homo sapiens) [compound 511]” the same measures were ““++” (>20% = ++)” and ““+” (<20% = +)”.
“166 (YLNHLEPPV; listed as Homo sapiens) [compound 166]”: the “Peptide exchange” value with HLA-A*02:01 is recorded as ““+++” (>50 = +++)”. Moreover, the “Wells positive [%]” value in the experiment with CD8+ T cells is on record as ““++++” (≥70% = ++++)”.
As for “652 (TLWYRAPEV; listed as Homo sapiens) [compound 652]”, in the experiment with CD8+ T cells, the donors entry is reported as “++++ (≥70% = ++++)” and the wells entry is “+++ (50% - 69% = +++)”.
As to “662 (KIQEILTQV; listed as Homo sapiens) [compound 662]”, in the experiment on CD8+ T cells, the donors entry is “+++ (50% - 69% = +++)” and the wells result is “+ (<20% = +)”.
Turning to “118 (KLIDNNINV; listed as Homo sapiens) [compound 118]”, in the experiment with HLA-A*02:01, the “Peptide exchange” value was ““+++” (>50 = +++)”. Further, the “Wells positive [%]” value in the experiment on CD8+ T cells was ““+” (<20% = +)”.
Consider “489 (KMWEELPEVV; listed as Homo sapiens) [compound 489]”, for which the “Peptide exchange” value with HLA-A*02:01 was ““+++” (>50 = +++)”. In addition, the “Wells positive [%]” value with CD8+ T cells is ““+” (<20% = +)”.
For the substance “38 (FLLEDDIHVS; listed as Homo sapiens) [compound 38]”, the “Peptide exchange” value in the experiment with HLA-A*02:01 is on record as ““+++” (>50 = +++)”. For the same substance, the “Wells positive [%]” value in the experiment with CD8+ T cells was ““+” (<20% = +)”.
